Data: the kinase profiling compilation of Christmann-Franck et al. (2016)
Each block holds one molecule with its values, some of them ahead of it.

What was measured:
Assay in all cases: radiometric filter-binding kinase assay
INSRR (human) = INSRR (human) (UniProt P14616)
LCK (mouse) = details: accession and sequence are those of the human protein
PRKCZ (human) = PRKCZ (human) (UniProt Q05513)
MAPK12 (human) = MAPK12 (human) (UniProt P53778)
AURKB (human) = AURKB (human) (UniProt Q96GD4)
IKBKB (human) = IKBKB (human) (UniProt O14920)
PHKG1 (human) = PHKG1 (human) (UniProt Q16816)
GSK3B (human) = GSK3B (human) (UniProt P49841)
SRPK1 (human) = SRPK1 (human) (UniProt Q96SB4)
CDK2 CCNA2 (human) = CDK2 CCNA2 (human) (UniProt P20248+P24941)
MAPK14 (human) = MAPK14 (human) (UniProt Q16539)
IKBKE (human) = IKBKE (human) (UniProt Q14164)
MST4 (human) = MST4 (human) (UniProt Q9P289)
FGFR1 (human) = FGFR1 (human) (UniProt P11362)
RPS6KA3 KD1 KD2 (human) = RPS6KA3 KD1 KD2 (human) (UniProt P51812)
RPS6KA1 KD1 KD2 (human) = RPS6KA1 KD1 KD2 (human) (UniProt Q15418)
BRSK2 (human) = BRSK2 (human) (UniProt Q8IWQ3)
CHEK2 (human) = CHEK2 (human) (UniProt O96017)
CSK (human) = CSK (human) (UniProt P41240)
[1] = system: SGK1 (human), O00141 [S422D]
MKNK1 (human) = MKNK1 (human) (UniProt Q9BUB5)
EPHA2 (human) = EPHA2 (human) (UniProt P29317)
PAK4 (human) = PAK4 (human) (UniProt O96013)
PAK6 (human) = PAK6 (human) (UniProt Q9NQU5)
STK3 (human) = STK3 (human) (UniProt Q13188)
NTRK1 (human) = NTRK1 (human) (UniProt P04629); details: compound 1.0 µM
STK16 (human) = STK16 (human) (UniProt O75716); details: compound 1.0 µM
HIPK1 (human) = HIPK1 (human) (UniProt Q86Z02); details: compound 1.0 µM
[2] = system: PAK2 (human), Q13177 [T402E]; details: compound 1.0 µM
MAP3K7 TAB1 (human) = MAP3K7 TAB1 (human) (UniProt Q15750+O43318); details: compound 1.0 µM
MAP3K5 (human) = MAP3K5 (human) (UniProt Q99683); details: compound 1.0 µM
FLT1 (human) = FLT1 (human) (UniProt P17948); details: compound 1.0 µM
RIPK2 (human) = RIPK2 (human) (UniProt O43353); details: compound 1.0 µM
MARK4 (human) = MARK4 (human) (UniProt Q96L34); details: compound 1.0 µM
[3] = molecular target: STK11 CAB39 STRADA (human) (UniProt Q9Y376+Q7RTN6+Q15831); details: compound 1.0 µM
MAP2K6 (human) = MAP2K6 (human) (UniProt P52564); details: compound 1.0 µM
BRSK1 (human) = BRSK1 (human) (UniProt Q8TDC3); details: compound 1.0 µM
MAP3K1 (human) = MAP3K1 (human) (UniProt Q13233); details: compound 1.0 µM
DAPK1 (human) = DAPK1 (human) (UniProt P53355); details: compound 1.0 µM
BTK (human) = BTK (human) (UniProt Q06187); details: compound 1.0 µM

Chain of CHEK2 (human) (O96017 whole entry, looked up): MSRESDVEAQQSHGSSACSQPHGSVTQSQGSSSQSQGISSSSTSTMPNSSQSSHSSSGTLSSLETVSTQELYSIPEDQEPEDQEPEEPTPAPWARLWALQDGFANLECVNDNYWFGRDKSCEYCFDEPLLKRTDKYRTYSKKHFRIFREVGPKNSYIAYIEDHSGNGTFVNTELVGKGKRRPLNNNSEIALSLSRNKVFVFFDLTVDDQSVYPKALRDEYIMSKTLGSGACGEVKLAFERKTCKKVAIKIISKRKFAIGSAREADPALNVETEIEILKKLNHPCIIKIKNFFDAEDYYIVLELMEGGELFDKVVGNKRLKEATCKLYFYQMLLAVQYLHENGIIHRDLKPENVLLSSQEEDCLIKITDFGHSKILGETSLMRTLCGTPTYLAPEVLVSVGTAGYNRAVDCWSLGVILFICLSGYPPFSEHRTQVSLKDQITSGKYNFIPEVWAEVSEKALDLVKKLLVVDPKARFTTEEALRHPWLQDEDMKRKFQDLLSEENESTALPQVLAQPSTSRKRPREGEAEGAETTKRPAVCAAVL
Chain of IKBKB (human) (O14920 whole entry, looked up): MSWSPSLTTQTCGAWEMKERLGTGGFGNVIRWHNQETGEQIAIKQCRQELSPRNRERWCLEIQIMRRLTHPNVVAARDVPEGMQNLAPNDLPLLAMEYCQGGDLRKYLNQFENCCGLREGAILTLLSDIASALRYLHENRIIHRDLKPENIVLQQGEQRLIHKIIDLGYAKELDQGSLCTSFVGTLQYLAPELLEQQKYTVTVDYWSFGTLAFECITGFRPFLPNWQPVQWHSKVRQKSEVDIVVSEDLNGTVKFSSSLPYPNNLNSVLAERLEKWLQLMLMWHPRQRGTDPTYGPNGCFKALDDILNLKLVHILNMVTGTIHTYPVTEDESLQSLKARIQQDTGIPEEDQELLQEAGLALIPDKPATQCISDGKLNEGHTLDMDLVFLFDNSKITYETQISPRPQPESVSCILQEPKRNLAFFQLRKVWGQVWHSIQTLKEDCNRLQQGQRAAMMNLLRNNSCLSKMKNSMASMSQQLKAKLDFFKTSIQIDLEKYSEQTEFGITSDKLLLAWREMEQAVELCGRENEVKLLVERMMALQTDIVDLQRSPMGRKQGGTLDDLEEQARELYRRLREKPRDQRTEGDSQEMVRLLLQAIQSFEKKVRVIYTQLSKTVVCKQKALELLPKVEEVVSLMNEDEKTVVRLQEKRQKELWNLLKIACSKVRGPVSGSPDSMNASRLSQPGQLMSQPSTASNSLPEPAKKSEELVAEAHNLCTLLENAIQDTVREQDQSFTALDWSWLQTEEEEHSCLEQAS
Chain of EPHA2 (human) (P29317 whole entry, looked up): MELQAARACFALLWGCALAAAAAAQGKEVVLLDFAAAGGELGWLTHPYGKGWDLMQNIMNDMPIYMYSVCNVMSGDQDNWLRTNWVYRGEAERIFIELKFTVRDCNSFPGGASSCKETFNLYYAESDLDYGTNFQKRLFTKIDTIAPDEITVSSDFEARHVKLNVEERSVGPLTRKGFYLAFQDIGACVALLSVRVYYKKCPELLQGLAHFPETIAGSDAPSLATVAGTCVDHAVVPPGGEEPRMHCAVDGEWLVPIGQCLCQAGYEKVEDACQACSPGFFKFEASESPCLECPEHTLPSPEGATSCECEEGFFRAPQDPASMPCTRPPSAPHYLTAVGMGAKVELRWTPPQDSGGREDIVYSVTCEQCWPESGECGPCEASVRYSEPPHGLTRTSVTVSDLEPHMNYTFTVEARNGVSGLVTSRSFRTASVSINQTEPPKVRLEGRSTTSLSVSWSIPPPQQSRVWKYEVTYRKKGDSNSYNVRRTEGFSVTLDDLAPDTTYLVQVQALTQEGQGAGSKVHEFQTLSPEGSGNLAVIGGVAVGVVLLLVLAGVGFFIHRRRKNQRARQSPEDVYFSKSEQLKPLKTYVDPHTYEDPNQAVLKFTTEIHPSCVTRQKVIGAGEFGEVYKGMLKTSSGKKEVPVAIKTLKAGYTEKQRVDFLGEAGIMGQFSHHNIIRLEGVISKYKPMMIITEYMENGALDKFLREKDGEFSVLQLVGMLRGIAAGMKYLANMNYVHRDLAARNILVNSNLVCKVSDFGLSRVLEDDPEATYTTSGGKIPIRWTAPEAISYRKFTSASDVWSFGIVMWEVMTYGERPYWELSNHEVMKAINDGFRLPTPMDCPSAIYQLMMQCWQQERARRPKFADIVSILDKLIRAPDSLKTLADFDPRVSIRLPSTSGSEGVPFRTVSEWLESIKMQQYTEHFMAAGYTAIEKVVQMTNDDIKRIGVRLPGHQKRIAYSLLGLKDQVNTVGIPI
Chain of BRSK2 (human) (Q8IWQ3 whole entry, looked up): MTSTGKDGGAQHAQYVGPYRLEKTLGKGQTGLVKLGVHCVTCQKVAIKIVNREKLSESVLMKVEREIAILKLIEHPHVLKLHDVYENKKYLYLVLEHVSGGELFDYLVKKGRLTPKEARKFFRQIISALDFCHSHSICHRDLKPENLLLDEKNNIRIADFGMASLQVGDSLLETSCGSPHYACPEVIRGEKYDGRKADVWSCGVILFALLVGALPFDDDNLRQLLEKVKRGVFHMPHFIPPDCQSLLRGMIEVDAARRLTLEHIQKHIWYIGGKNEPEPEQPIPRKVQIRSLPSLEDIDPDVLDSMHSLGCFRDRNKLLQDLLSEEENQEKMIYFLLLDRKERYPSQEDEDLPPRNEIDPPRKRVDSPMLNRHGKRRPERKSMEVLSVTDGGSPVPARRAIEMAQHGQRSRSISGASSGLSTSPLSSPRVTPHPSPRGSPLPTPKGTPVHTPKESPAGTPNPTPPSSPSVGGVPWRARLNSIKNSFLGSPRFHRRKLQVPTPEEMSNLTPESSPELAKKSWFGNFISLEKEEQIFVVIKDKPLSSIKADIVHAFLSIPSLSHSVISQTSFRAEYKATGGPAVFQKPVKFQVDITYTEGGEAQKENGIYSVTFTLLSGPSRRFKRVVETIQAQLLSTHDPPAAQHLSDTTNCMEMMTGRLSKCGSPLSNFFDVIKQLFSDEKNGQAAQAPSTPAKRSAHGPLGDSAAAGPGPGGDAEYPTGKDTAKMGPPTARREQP
Chain of MST4 (human) (Q9P289 whole entry, looked up): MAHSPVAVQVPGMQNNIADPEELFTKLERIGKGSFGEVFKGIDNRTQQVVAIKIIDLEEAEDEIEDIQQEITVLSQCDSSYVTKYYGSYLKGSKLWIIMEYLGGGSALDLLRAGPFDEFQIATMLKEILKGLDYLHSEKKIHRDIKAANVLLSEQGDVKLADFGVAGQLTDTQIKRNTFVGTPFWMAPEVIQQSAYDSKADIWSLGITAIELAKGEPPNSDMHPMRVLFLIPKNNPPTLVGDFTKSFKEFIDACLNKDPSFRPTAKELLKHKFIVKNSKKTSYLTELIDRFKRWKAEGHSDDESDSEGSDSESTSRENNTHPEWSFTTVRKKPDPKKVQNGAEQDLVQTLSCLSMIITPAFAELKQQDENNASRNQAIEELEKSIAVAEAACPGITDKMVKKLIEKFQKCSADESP
Chain of GSK3B (human) (P49841 whole entry, looked up): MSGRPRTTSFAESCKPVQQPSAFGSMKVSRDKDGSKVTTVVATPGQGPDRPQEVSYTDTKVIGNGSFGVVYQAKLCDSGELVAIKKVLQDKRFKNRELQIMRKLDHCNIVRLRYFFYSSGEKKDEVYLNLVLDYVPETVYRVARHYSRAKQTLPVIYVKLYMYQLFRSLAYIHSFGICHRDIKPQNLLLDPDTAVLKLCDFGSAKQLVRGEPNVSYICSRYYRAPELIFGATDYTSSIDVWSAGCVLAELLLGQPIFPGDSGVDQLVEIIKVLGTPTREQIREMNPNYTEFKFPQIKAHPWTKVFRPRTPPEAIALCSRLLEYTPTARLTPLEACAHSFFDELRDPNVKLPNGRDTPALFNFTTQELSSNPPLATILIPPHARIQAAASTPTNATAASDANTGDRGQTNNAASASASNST
Chain of RPS6KA3 KD1 KD2 (human) (P51812 whole entry, looked up): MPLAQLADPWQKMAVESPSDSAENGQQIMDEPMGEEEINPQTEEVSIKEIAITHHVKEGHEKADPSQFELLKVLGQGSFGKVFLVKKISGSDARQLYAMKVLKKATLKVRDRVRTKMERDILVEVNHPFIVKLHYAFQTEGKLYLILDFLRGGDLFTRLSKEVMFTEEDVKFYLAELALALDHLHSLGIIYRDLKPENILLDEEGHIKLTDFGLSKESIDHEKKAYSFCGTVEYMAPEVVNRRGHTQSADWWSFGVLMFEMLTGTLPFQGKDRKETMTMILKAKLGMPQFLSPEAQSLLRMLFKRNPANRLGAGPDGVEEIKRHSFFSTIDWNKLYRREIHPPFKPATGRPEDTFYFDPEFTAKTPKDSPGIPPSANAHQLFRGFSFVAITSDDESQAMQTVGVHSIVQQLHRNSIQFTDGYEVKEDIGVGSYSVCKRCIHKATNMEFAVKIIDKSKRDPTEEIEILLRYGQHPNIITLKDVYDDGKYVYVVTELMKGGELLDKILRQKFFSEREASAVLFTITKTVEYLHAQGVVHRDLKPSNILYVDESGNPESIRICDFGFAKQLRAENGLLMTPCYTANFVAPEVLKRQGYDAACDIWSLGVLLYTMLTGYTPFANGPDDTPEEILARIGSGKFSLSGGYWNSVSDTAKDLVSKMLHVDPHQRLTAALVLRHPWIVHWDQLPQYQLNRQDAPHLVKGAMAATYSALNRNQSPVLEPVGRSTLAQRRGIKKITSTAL
Chain of SGK1 (human), O00141 [S422D] (O00141 whole entry S422D, looked up): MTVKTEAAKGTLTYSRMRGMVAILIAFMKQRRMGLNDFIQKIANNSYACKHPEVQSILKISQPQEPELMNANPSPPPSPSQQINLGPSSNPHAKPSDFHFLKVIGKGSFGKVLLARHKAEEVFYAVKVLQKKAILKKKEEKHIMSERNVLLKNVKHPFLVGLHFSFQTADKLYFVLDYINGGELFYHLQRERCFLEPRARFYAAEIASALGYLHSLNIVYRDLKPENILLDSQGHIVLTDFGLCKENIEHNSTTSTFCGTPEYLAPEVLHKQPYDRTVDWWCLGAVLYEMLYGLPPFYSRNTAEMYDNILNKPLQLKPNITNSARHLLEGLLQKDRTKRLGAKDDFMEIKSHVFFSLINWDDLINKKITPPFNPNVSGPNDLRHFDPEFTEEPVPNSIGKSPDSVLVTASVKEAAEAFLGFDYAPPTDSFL

residual activity (INSRR (human); compound 20.0 µM): 47%
residual activity (LCK (mouse); compound 20.0 µM): 93%
residual activity (PRKCZ (human); compound 20.0 µM): 89%
residual activity (MAPK12 (human); compound 20.0 µM): 85%
residual activity (AURKB (human); compound 20.0 µM): 75%
residual activity (IKBKB (human); compound 20.0 µM): 94%
residual activity (PHKG1 (human); compound 20.0 µM): 77%
residual activity (GSK3B (human); compound 20.0 µM): 54%
residual activity (SRPK1 (human); compound 20.0 µM): 80%
residual activity (CDK2 CCNA2 (human); compound 20.0 µM): 54%
residual activity (MAPK14 (human); compound 20.0 µM): 84%
residual activity (IKBKE (human); compound 20.0 µM): 103%
residual activity (MST4 (human); compound 20.0 µM): 87%
residual activity (FGFR1 (human); compound 20.0 µM): 62%
residual activity (RPS6KA3 KD1 KD2 (human); compound 20.0 µM): 80%
residual activity (RPS6KA1 KD1 KD2 (human); compound 20.0 µM): 70%
residual activity (BRSK2 (human); compound 20.0 µM): 96%
residual activity (CHEK2 (human); compound 20.0 µM): 64%
residual activity (CSK (human); compound 20.0 µM): 98%
residual activity ([1]; compound 20.0 µM): 70%
residual activity (MKNK1 (human); compound 20.0 µM): 71%
residual activity (EPHA2 (human); compound 20.0 µM): 86%
residual activity (PAK4 (human); compound 20.0 µM): 46%
residual activity (PAK6 (human); compound 20.0 µM): 90%
residual activity (STK3 (human); compound 20.0 µM): 39%
SMILES: Oc1ccc2c(c1)C(O)c1cc(O)ccc1-2

residual activity (NTRK1 (human)): 107%
residual activity (STK16 (human)): 85%
residual activity (INSRR (human); compound 1.0 µM): 24%
residual activity (HIPK1 (human)): 74%
residual activity [2]: 87%
residual activity (MAP3K7 TAB1 (human)): 71%
residual activity (LCK (mouse); compound 1.0 µM): 92%
residual activity (MAP3K5 (human)): 87%
residual activity (PRKCZ (human); compound 1.0 µM): 70%
residual activity (FLT1 (human)): 40%
residual activity (MAPK12 (human); compound 1.0 µM): 82%
residual activity (RIPK2 (human)): 107%
residual activity (AURKB (human); compound 1.0 µM): 81%
residual activity (IKBKB (human); compound 1.0 µM): 85%
residual activity (MARK4 (human)): 99%
residual activity (PHKG1 (human); compound 1.0 µM): 45%
residual activity [3]: 71%
residual activity (GSK3B (human); compound 1.0 µM): 77%
residual activity (SRPK1 (human); compound 1.0 µM): 83%
residual activity (CDK2 CCNA2 (human); compound 1.0 µM): 51%
residual activity (MAPK14 (human); compound 1.0 µM): 83%
residual activity (IKBKE (human); compound 1.0 µM): 81%
residual activity (MST4 (human); compound 1.0 µM): 86%
residual activity (FGFR1 (human); compound 1.0 µM): 77%
residual activity (RPS6KA3 KD1 KD2 (human); compound 1.0 µM): 40%
residual activity (MAP2K6 (human)): 92%
residual activity (RPS6KA1 KD1 KD2 (human); compound 1.0 µM): 83%
residual activity (BRSK2 (human); compound 1.0 µM): 66%
residual activity (CHEK2 (human); compound 1.0 µM): 79%
residual activity (CSK (human); compound 1.0 µM): 98%
residual activity (BRSK1 (human)): 73%
residual activity ([1]; compound 1.0 µM): 80%
residual activity (MKNK1 (human); compound 1.0 µM): 66%
residual activity (MAP3K1 (human)): 67%
residual activity (EPHA2 (human); compound 1.0 µM): 84%
residual activity (DAPK1 (human)): 31%
residual activity (PAK4 (human); compound 1.0 µM): 75%
residual activity (BTK (human)): 60%
residual activity (PAK6 (human); compound 1.0 µM): 121%
residual activity (STK3 (human); compound 1.0 µM): 64%
SMILES: Oc1ccc2c(c1)oc1c3ccccc3c(O)cc21

SMILES: COc1ccc2c(c1)[nH]c1c(C)nccc12
residual activity (NTRK1 (human)): 104%
residual activity (STK16 (human)): 92%
residual activity (INSRR (human); compound 1.0 µM): 23%
residual activity (HIPK1 (human)): 119%
residual activity [2]: 89%
residual activity (MAP3K7 TAB1 (human)): 95%
residual activity (LCK (mouse); compound 1.0 µM): 88%
residual activity (MAP3K5 (human)): 95%
residual activity (PRKCZ (human); compound 1.0 µM): 77%
residual activity (FLT1 (human)): 78%
residual activity (MAPK12 (human); compound 1.0 µM): 67%
residual activity (RIPK2 (human)): 107%
residual activity (AURKB (human); compound 1.0 µM): 94%
residual activity (IKBKB (human); compound 1.0 µM): 81%
residual activity (MARK4 (human)): 89%
residual activity (PHKG1 (human); compound 1.0 µM): 84%
residual activity [3]: 94%
residual activity (GSK3B (human); compound 1.0 µM): 87%
residual activity (SRPK1 (human); compound 1.0 µM): 78%
residual activity (CDK2 CCNA2 (human); compound 1.0 µM): 80%
residual activity (MAPK14 (human); compound 1.0 µM): 77%
residual activity (IKBKE (human); compound 1.0 µM): 83%
residual activity (MST4 (human); compound 1.0 µM): 135%
residual activity (FGFR1 (human); compound 1.0 µM): 103%
residual activity (RPS6KA3 KD1 KD2 (human); compound 1.0 µM): 78%
residual activity (MAP2K6 (human)): 95%
residual activity (RPS6KA1 KD1 KD2 (human); compound 1.0 µM): 93%
residual activity (BRSK2 (human); compound 1.0 µM): 107%
residual activity (CHEK2 (human); compound 1.0 µM): 95%
residual activity (CSK (human); compound 1.0 µM): 103%
residual activity (BRSK1 (human)): 83%
residual activity ([1]; compound 1.0 µM): 78%
residual activity (MKNK1 (human); compound 1.0 µM): 81%
residual activity (MAP3K1 (human)): 89%
residual activity (EPHA2 (human); compound 1.0 µM): 87%
residual activity (DAPK1 (human)): 95%
residual activity (PAK4 (human); compound 1.0 µM): 67%
residual activity (BTK (human)): 69%
residual activity (PAK6 (human); compound 1.0 µM): 107%
residual activity (STK3 (human); compound 1.0 µM): 81%
